Where a name gives a salt, the structure may show the parent alone. Read-outs that look alike come from different tables or passages of the source. Marks after values point to notes of the source that are not given here.
Key:
[1] = target: human RORγt ligand binding domain (RORγt LBD) (Homo sapiens (Human), UniProt P51449); test: RORγt ThermoFluor® assay (thermal shift binding)
In short: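 Thermal shift with 0.065 mg/mL RORγt LBD and 60 μM 1,8-ANS in 100 mM Hepes pH 7.0, 10 mM NaCl, 2.5 mM GSH, 0.002% Tween-20.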

full-length human RORγt = full-length human RORγt (Homo sapiens (Human), UniProt P51449); test: RORγt (full-length human) reporter assay, conditions A or B, HEK293T cells; type: cell-based; conditions: for inhibition at 3 µM / inhibition at 6 µM / inhibition at 0.67 µM / inhibition at 2 µM: HEK-293T; for inhibition at 3 µM / inhibition at 0.67 µM / inhibition at 2 µM: read-out: RORγt (FL) Reporter Assay A or B, % inhibition; for inhibition at 6 µM: read-out: RORγt (FL) Reporter Assay A or B, % inhibition @ 6 μM; for inhibition at 2 µM: 2 μM compound concentration
Chain of full-length human RORγt (P51449 other isoform, or with tags, fused parts or gaps): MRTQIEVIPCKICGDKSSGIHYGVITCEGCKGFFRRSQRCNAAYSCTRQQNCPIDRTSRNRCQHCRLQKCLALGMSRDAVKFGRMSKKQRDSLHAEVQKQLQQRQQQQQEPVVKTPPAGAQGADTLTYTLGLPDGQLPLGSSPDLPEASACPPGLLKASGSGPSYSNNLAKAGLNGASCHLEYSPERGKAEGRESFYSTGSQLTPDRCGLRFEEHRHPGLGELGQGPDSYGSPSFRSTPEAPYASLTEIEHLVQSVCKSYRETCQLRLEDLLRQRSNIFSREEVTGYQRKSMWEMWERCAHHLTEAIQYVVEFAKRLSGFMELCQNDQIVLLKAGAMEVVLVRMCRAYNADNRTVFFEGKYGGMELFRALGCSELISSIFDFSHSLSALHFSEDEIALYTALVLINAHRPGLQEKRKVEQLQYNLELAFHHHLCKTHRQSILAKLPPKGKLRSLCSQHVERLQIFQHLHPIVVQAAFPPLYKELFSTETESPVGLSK
In short: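 Dual-luciferase read-out was taken after an overnight (16–20 h) compound exposure. Firefly data were scaled between DMSO-only and saturating reference compound, Renilla-normalized, then plotted against concentration for IC50.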

[2] = 3 μM compound concentration (footnote *)
[3] = RORγt (FL) Reporter Assay A or B, IC50, HEK293T cells
[4] = read-out: ThermoFluor® Assay, Kd
[5] = HEK293T cells, read-out: RORγt (FL) Reporter Assay A or B, IC50

Chain of human RORγt ligand binding domain (RORγt LBD) (P51449 other isoform, or with tags, fused parts or gaps): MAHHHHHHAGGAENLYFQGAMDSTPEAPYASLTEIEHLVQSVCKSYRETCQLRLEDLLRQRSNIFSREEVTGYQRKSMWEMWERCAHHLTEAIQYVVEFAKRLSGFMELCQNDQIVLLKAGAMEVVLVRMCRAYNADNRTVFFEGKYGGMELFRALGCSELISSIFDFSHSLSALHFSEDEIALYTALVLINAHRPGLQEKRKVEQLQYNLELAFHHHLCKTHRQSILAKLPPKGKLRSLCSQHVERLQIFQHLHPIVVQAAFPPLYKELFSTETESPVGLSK

| Structure (SMILES) | Kd ([1]; ThermoFluor® Assay, Kd) [nM] | inhibition at 3 µM (full-length human RORγt; [2]) [%] | IC50 (full-length human RORγt; [3]) [nM] | Kd [1, 4] [nM] | also measured |
| --- | --- | --- | --- | --- | --- |
| CCn1nc(C(=O)NC[C@]2(O)CC[C@@H](S(C)(=O)=O)CC2)c(Cl)c1-c1ccc(C2(O)CCC(C(F)(F)F)CC2)cc1OC(F)F (single isomer, unassigned) [Example 113, 4-Chloro-5-(2-(difluoromethoxy)-4-((1r*,4r*)-1-hydroxy-4-(trifluoromethyl)cyclohexyl)phenyl)-1-ethyl-N-(((1s,4s)-1-hydroxy-4-(methylsulfonyl)cyclohexyl)methyl)-1H-pyrazole-3-carboxamide] | 120 | 88 | 61 |  |  |
| CCn1nc(C(=O)NC[C@]2(O)CC[C@@H](S(C)(=O)=O)CC2)c(Cl)c1-c1ccc(C(O)(C(F)(F)F)C(F)(F)F)cc1OC(F)F [Example 117, 4-Chloro-5-(2-(difluoromethoxy)-4-(1,1,1,3,3,3-hexafluoro-2-hydroxypropan-2-yl)phenyl)-1-ethyl-N-(((1s,4s)-1-hydroxy-4-(methylsulfonyl)cyclohexyl)methyl)-1H-pyrazole-3-carboxamide] |  | 102 | 4.2 | 0.27 |  |
| Cc1c(C(=O)NC[C@]2(O)CC[C@@H](S(C)(=O)=O)CC2)nn(CC(C)(C)O)c1-c1ccc(CC(C)(C)C(F)(F)F)cc1OC(F)F [Example 146, 5-(2-(Difluoromethoxy)-4-(3,3,3-trifluoro-2,2-dimethylpropyl)phenyl)-1-(2-hydroxy-2-methylpropyl)-N-(((1s,4s)-1-hydroxy-4-(methylsulfonyl)cyclohexyl)methyl)-4-methyl-1H-pyrazole-3-carboxamide] |  | 106 | 15 | 15 |  |
| CCn1nc(C(=O)NC[C@]2(C(=O)O)CC[C@H](S(C)(=O)=O)CC2)c(Cl)c1-c1ccc(N[C@H](C)C(F)(F)F)cc1OC (relative stereo) [Example 96, (1r*,4R*)-1-((4-Chloro-1-ethyl-5-(2-methoxy-4-(((R)-1,1,1-trifluoropropan-2-yl)amino)phenyl)-1H-pyrazole-3-carboxamido)methyl)-4-(methylsulfonyl)cyclohexane-1-carboxylic Acid] | 25000 |  | > 6000 |  | inhibition at 6 µM (full-length human RORγt; 6 μM compound concentration): -10% |
| CCn1nc(C(=O)NC[C@@]2(O)CC[C@H](S(C)(=O)=O)C[C@@H]2O)c(C)c1-c1ccc(C[C@H](C)C(F)(F)F)cc1OC(F)F (stereo in doubt) [Example 57, 5-(2-(Difluoromethoxy)-4-((S*)-3,3,3-trifluoro-2-methylpropyl)phenyl)-N-(((1S*,2S*,4S*)-1,2-dihydroxy-4-(methylsulfonyl)cyclohexyl)methyl)-1-ethyl-4-methyl-1H-pyrazole-3-carboxamide] | 5.7 | 95 | 35 |  |  |
| CCn1nc(C(=O)NC[C@H]2CC[C@H](S(C)(=O)=O)CC2)c(Cl)c1-c1ccc(CCC(F)(F)F)cc1Cl [Example 174, 4-Chloro-5-(2-chloro-4-(3,3,3-trifluoropropyl)phenyl)-1-ethyl-N-(((1r,4r)-4-(methylsulfonyl)cyclohexyl)methyl)-1H-pyrazole-3-carboxamide] |  |  | 38 | 5.9 | inhibition at 0.67 µM (full-length human RORγt): 40% |
| CCn1nc(C(=O)NC[C@H]2CC[C@H](S(=O)(=O)NC=O)CC2)c(Cl)c1-c1ccc(CC(C)(C)C(F)(F)F)cc1OC(F)F [Example 67, 4-Chloro-5-(2-(difluoromethoxy)-4-(3,3,3-trifluoro-2,2-dimethylpropyl)phenyl)-1-ethyl-N-(((1r,4r)-4-(N-formylsulfamoyl)cyclohexyl)methyl)-1H-pyrazole-3-carboxamide] |  |  |  | 0.039 | RORγt (FL) Reporter Assay A or B, % inhibition (full-length human RORγt; [2]): 118* %; IC50 (full-length human RORγt; [5]): 56 nM |
| CCn1nc(C(=O)NC[C@H]2CC[C@H](S(C)(=O)=O)CC2)c(C#N)c1-c1ccc(CC(C)C(F)(F)F)cc1OC (some centres unmarked) [Example 123, 4-Cyano-1-ethyl-5-(2-methoxy-4-(3,3,3-trifluoro-2-methylpropyl)phenyl)-N-(((1r,4r)-4-(methylsulfonyl)cyclohexyl)methyl)-1H-pyrazole-3-carboxamide] |  |  | 35 | 9.6 | inhibition at 2 µM (full-length human RORγt): 85% |
| CCn1nc(C(=O)NC[C@]2(O)CC[C@@H](S(C)(=O)=O)CC2)c(Cl)c1-c1ccc(CC(C)(C)C(F)(F)F)cc1 [Example 167, 4-Chloro-1-ethyl-N-(((1s,4s)-1-hydroxy-4-(methylsulfonyl)cyclohexyl)methyl)-5-(4-(3,3,3-trifluoro-2,2-dimethylpropyl)phenyl)-1H-pyrazole-3-carboxamide] |  |  | 24 | 8.6 | inhibition at 0.67 µM (full-length human RORγt; 0.67 μM compound concentration (footnote ****)): 83% |
| CCn1nc(C(=O)NC[C@H]2CC[C@H](S(C)(=O)=O)CC2)c(C#N)c1-c1ccc(CCC(F)(F)F)cc1OC [Example 125, 4-Cyano-1-ethyl-5-(2-methoxy-4-(3,3,3-trifluoropropyl)phenyl)-N-(((1r,4r)-4-(methylsulfonyl)cyclohexyl)methyl)-1H-pyrazole-3-carboxamide] |  |  | 230 | 44 | inhibition at 6 µM (full-length human RORγt): 85% |
| CCn1nc(C(=O)NC[C@]2(O)CC[C@H](S(C)(=O)=O)CC2)c(Cl)c1-c1ccc(N[C@H](C)C(F)(F)F)cc1OC [Example 220, 4-Chloro-1-ethyl-N-(((1r,4R)-1-hydroxy-4-(methylsulfonyl)cyclohexyl)methyl)-5-(2-methoxy-4-(((R)-1,1,1-trifluoropropan-2-yl)amino)phenyl)-1H-pyrazole-3-carboxamide] |  |  |  | 430 | RORγt (FL) Reporter Assay A or B, % inhibition @ 6 μM (full-length human RORγt; 6 μM compound concentration): 90%; IC50 (full-length human RORγt; [5]): 1100 nM |
| CCn1nc(C(=O)NC[C@]2(O)CC[C@@H](S(C)(=O)=O)CC2)c(C#N)c1-c1ccc(CCC(F)(F)F)cc1OC [Example 124, 4-Cyano-1-ethyl-N-(((1s,4s)-1-hydroxy-4-(methylsulfonyl)cyclohexyl)methyl)-5-(2-methoxy-4-(3,3,3-trifluoropropyl)phenyl)-1H-pyrazole-3-carboxamide] |  |  | 770 | 170 | inhibition at 6 µM (full-length human RORγt; 6 μM compound concentration): 83% |
| CCn1nc(C(=O)NC[C@]2(O)CC[C@@H](S(C)(=O)=O)CC2)c(Cl)c1-c1c(F)cc(C[C@@H](C)C(F)(F)F)cc1F (single isomer, unassigned) [Example 199, 4-Chloro-5-(2,6-difluoro-4-((R*)-3,3,3-trifluoro-2-methylpropyl)phenyl)-1-ethyl-N-(((1s,4S)-1-hydroxy-4-(methylsulfonyl)cyclohexyl)methyl)-1H-pyrazole-3-carboxamide] | 14 |  | 58 |  | inhibition at 2 µM (full-length human RORγt): 75% |
| Cn1nc(C(=O)NC[C@@]2(O)CC[C@H](S(C)(=O)=O)C[C@@H]2O)c(Cl)c1-c1ccc(CCCC(F)(F)F)cc1OC(F)F (stereo in doubt) [Example 159, 4-Chloro-5-(2-(difluoromethoxy)-4-(4,4,4-trifluorobutyl)phenyl)-N-(((1S*,2S*,4S*)-1,2-dihydroxy-4-(methylsulfonyl)cyclohexyl)methyl)-1-methyl-1H-pyrazole-3-carboxamide] | 41 | 73 | 39 |  |  |
| CCn1nc(C(=O)NC[C@]2(O)CC[C@@H](S(C)(=O)=O)CC2)c(Cl)c1-c1ccc(CC(C)(C)C(F)(F)F)cc1Cl [Example 164, 4-Chloro-5-(2-chloro-4-(3,3,3-trifluoro-2,2-dimethylpropyl)phenyl)-1-ethyl-N-(((1s,4s)-1-hydroxy-4-(methylsulfonyl)cyclohexyl)methyl)-1H-pyrazole-3-carboxamide] |  |  | 6.6 | 0.5 |  |
| CCn1nc(C(=O)NC[C@H]2CC[C@H](S(C)(=O)=O)CN2)c(Cl)c1-c1ccc(CC(C)(C)C(F)(F)F)cc1OC(F)F (stereo in doubt) [Example 8, 4-Chloro-5-(2-(difluoromethoxy)-4-(3,3,3-trifluoro-2,2-dimethylpropyl)phenyl)-1-ethyl-N-(((2RS,5SR)-5-(methylsulfonyl)piperidin-2-yl)methyl)-1H-pyrazole-3-carboxamide Hydrobromide] | 0.73 | 92 | 13 |  |  |
| CCn1nc(C(=O)NC[C@@H]2CC[C@@H](S(C)(=O)=O)CN2)c(Cl)c1-c1ccc(CC(C)(C)C(F)(F)F)cc1OC(F)F (stereo in doubt) [Example 10, 4-Chloro-5-(2-(difluoromethoxy)-4-(3,3,3-trifluoro-2,2-dimethylpropyl)phenyl)-1-ethyl-N-(((2S*,5R*)-5-(methylsulfonyl)piperidin-2-yl)methyl)-1H-pyrazole-3-carboxamide hydrobromide] | 2.6 | 103 | 25 |  |  |
| CCn1nc(C(=O)NC[C@H]2CC[C@H](S(C)(=O)=O)C[NH+]2CC(=O)ON)c(Cl)c1-c1ccc(CC(C)(C)C(F)(F)F)cc1OC(F)F (stereo in doubt) [Example 64, N-(((2R*,5S*)-1-(2-(Aminooxy)-2-oxoethyl)-5-(methylsulfonyl)piperidin-2-yl)methyl)-4-chloro-5-(2-(difluoromethoxy)-4-(3,3,3-trifluoro-2,2-dimethylpropyl)phenyl)-1-ethyl-1H-pyrazole-3-carboxamide Trifluoroacetic Acid Salt] | 3.2 | 119 | 51 |  |  |

Source: US10975037B2 (priority 2018, dated 2021)
